From US20060128695A1, “Cyclic nucleotide phosphodiesterase inhibitors, preparation and uses” (NEURO3D, priority 2002, published 2006)
Like-named read-outs stand apart in the source and are kept apart here.

What was measured:
PDE2 = biological target: T1, PDE2 (Bos taurus, UniProt P14099); experiment: Inhibition of PDE2, radioenzymatic phosphodiesterase assay; assay type: biochemical, bovine; details: for inhibition at 10 µM: read-out: PDE2 percentage inhibition at 10 μM
T1 construct: PDE2 was prepared from bovine endothelial cells by the same methods; endogenous in cells; host or cells: bovine endothelial cells
T1 sequence (P14099 1-921): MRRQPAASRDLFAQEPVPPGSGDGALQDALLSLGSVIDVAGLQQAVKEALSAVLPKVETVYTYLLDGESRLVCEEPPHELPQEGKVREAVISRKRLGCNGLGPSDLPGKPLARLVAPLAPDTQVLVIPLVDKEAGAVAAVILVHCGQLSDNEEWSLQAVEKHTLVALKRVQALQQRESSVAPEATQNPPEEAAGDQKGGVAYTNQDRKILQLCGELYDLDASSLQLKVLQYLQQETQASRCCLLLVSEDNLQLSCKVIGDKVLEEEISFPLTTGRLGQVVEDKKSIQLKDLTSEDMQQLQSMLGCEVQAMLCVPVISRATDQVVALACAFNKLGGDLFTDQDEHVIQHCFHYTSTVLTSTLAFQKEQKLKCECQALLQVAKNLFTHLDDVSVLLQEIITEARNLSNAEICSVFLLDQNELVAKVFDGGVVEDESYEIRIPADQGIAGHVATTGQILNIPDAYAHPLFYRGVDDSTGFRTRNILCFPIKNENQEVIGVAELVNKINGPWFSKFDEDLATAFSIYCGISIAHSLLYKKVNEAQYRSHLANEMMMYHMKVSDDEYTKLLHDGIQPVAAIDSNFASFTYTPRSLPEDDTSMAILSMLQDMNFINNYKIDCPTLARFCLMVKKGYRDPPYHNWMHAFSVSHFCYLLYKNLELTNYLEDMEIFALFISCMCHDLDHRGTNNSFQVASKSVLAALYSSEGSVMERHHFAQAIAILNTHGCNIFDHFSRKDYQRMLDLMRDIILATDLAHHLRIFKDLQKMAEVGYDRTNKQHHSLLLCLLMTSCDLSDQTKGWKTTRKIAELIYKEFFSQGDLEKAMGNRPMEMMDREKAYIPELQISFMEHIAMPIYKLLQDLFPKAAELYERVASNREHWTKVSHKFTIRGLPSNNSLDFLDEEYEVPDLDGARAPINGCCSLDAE

PDE4 = experiment: Selectivity: inhibition of PDE4, radioenzymatic phosphodiesterase assay; assay type: biochemical, bovine; details: vascular smooth muscle; for PDE4 percentage inhibition at 10 μM: 10 μM test compound; for IC50: cells without % sign
Description: A 3 g segment of bovine aortic media cut into pieces with scissors was homogenized with an ultra-turrax then a potter glass/glass homogenizer in 7 volumes by weight of buffer A containing a protease inhibitor cocktail (20 mM Tris-HCl, 0.25 M saccharose, 2 mM magnesium acetate, 1 mM dithiothreitol, 5 mM EGTA, 2000 U/ml aprotinin, 10 mg/l leupeptin and 10 mg/l soya trypsic inhibitor). The homogenizate was centrifuged at 105,000 g for 1 hour. The supernatant was loaded on a DEAE-Sephacel column (15 x 1.6 cm) pre-equilibrated with buffer B (buffer A without the saccharose, EGTA and protease inhibitors). The column was washed until there was no detectable absorption at 280 nm, then eluted with a linear gradient of NaCl (0-0.5 M) in buffer B. 3-ml fractions were collected and enzyme activity was determined under the conditions described hereinbelow to localize the different enzymes PDE1, PDE3, PDE4 and PDE5 which were aliquoted and frozen at −80° C. (Lugnier et al., Biochem. Phamacol., 1986, 35: 1746-1751). PDE2 was prepared from bovine endothelial cells by the same methods (Lugnier and Schini, Biochem. Pharmacol., 1990, 39: 75-84).
Cyclic nucleotide phosphodiesterase activity was determined by a radioenzymatic method using tritium-labelled cyclic GMP or AMP (1 μM) as substrate (Lugnier et al., 1986). ^3H-labelled adenosine or guanosine monophosphate formed by hydrolysis of the radiolabelled cyclic nucleotide was then converted to ^3H-labelled adenosine or guanosine in a second reaction with […] in excess. The nucleoside formed was separated from the nucleotides by anion exchange chromatography. Nucleoside radioactivity was determined by liquid scintillation counting. Enzymatic incubations were carried out under conditions allowing no more than 15% hydrolysis of the substrate; each point was performed in duplicate.
The activity of the compounds was evaluated on other phosphodiesterase isoforms, particularly basal state or calmodulin-activated PDEl from vascular smooth muscle, PDE3, PDE4 and PDE5 from vascular smooth muscle.
The results obtained are presented in Tables 1 and 2 hereinbelow and are expressed as the percentage inhibition of enzymatic activity produced by […] of the test compound.

[1] = 10 μM test compound, PDE2 from bovine endothelial cells
[2] = 1 μM cyclic AMP, PDE2 from bovine endothelial cells, read-out: PDE2 IC50

Row | Molecule | IC50 (PDE2) [µM] | inhibition at 10 µM (PDE2) [%] | other results
1 | COc1cc2c(cc1OC)N(C)C(=O)CN=C2c1cccc(C#CCCCC#N)c1 [Compound 6d, 6-[3-(7,8-dimethoxy-1-methyl-2-oxo-2,3-dihydro-1H-1,4-benzodiazepin-5-yl)phenyl]hex-5-ynenitrile] | 2.4 | – | PDE4 percentage inhibition at 10 μM (PDE4): 55.7%
2 | COc1cc2c(cc1OC)N(C)C(=O)CN=C2c1cccc(-c2ccc(Cl)cc2)c1 [Compound 6j, 5-(4′-chloro-1,1′-biphenyl-3-yl)-7,8-dimethoxy-1-methyl-1,3-dihydro-2H-1,4-benzodiazepin-2-one] | 0.71 | – | IC50 (PDE4): 2.8 µM
3 | COc1cc2c(cc1OC)N(C)C(=O)CN=C2c1cccc(-c2ccc(C#N)cc2)c1 [Compound 6m, 3′-(7,8-dimethoxy-1-methyl-2-oxo-2,3-dihydro-1H-1,4-benzodiazepin-5-yl)-1,1′-biphenyl-4-carbonitrile] | – | 82.3 | PDE4 percentage inhibition at 10 μM (PDE4): 37.3%
4 | COc1cc2c(cc1OC)N(C)C(=O)CN=C2c1cccc(-c2ccc(C(N)=O)cc2)c1 [Compound 6n, 3′-(7,8-dimethoxy-1-methyl-2-oxo-2,3-dihydro-1H-1,4-benzodiazepin-5-yl)-1,1′-biphenyl-4-carboxamide] | – | 84.6 | PDE4 percentage inhibition at 10 μM (PDE4): 58.7%
5 | CCN1C(=O)C(Cc2ccc(Cl)c(Cl)c2)N=C(c2ccccc2)c2cc(OC)c(OC)cc21 (stereo not drawn) [Compound 7a, 3-(3,4-dichlorobenzyl)-1-ethyl-7,8-dimethoxy-5-phenyl-1,3-dihydro-2H-1,4-benzodiazepin-2-one] | 3.13 | – | IC50 (PDE4): 6.52 µM
6 | COc1cc2c(c(-c3ccccc3)c1OC)C(c1cccc(C#N)c1)=NCC(=O)N2C [Compound 25b, 3-(7,8-dimethoxy-1-methyl-2-oxo-6-phenyl-2,3-dihydro-1H-1,4-benzodiazepin-5-yl)benzonitrile] | – | 22.9 | –
7 | COc1ccc2c(c1)NC(=O)CN=C2c1cccc(C#N)c1 [Compound 28a, 3-(8-methoxy-2-oxo-2,3-dihydro-1H-1,4-benzodiazepin-5-yl)benzonitrile] | 65 | 52.5 | –
8 | COc1cccc2c1C(c1cccc(C#N)c1)=NCC(=O)N2 [Compound 28b, 3-(6-methoxy-2-oxo-2,3-dihydro-1H-1,4-benzodiazepin-5-yl)benzonitrile] | 88 | 34.5 | –
9 | COc1ccc2c(c1)C(c1cccc(C#N)c1)=NCC(=O)N2 [Compound 28c, 3-(7-methoxy-2-oxo-2,3-dihydro-1H-1,4-benzodiazepin-5-yl)benzonitrile] | – | 46.5 | –
10 | COc1cccc2c1C(c1ccccc1)=NCC(=O)N2 [Compound 28d, 6-methoxy-5-phenyl-1,3-dihydro-2H-1,4-benzodiazepin-2-one] | – | 4.7 | –
11 | COc1ccc2c(c1)C(c1ccccc1)=NCC(=O)N2 [Compound 28e, 7-methoxy-5-phenyl-1,3-dihydro-2H-1,4-benzodiazepin-2-one] | – | 8.8 | –
12 | COc1cc2c(c(Br)c1OC)NC(=O)CN=C2c1ccccc1 [Compound 28f, 9-bromo-7,8-dimethoxy-5-phenyl-1,3-dihydro-2H-1,4-benzodiazepin-2-one] | – | 13.5 | –
13 | COc1ccc2c(c1)N(C)C(=O)CN=C2c1cccc(C#N)c1 [Compound 29a, 3-(8-methoxy-1-methyl-2-oxo-2,3-dihydro-1H-1,4-benzodiazepin-5-yl)benzonitrile] | 35 | – | –
14 | COC(=O)c1cccc(C2=NCC(=O)N(C)c3cc(OC)c(OC)cc32)c1 [Compound 34a, 3-(7,8-dimethoxy-1-methyl-2-oxo-2,3-dihydro-1H-1,4-benzodiazepin-5-yl)methyl benzoate] | 2.6 | – | –
15 | COc1cc2c(cc1OC)N(C)C(=O)CN=C2c1cccc(C(=O)O)c1 [Compound 35a, 3-(7,8-dimethoxy-1-methyl-2-oxo-2,3-dihydro-1H-1,4-benzodiazepin-5-yl)benzoic acid] | – | – | inhibition at 10 µM (PDE2; [1]): 26%
16 | COc1cc2c(cc1OC)N(C)C(=O)CN=C2c1cccc(C(=O)NC(C)C)c1 [Compound 36a, 3-(7,8-dimethoxy-1-methyl-2-oxo-2,3-dihydro-1H-1,4-benzodiazepin-5-yl)N-isopropylbenzamide] | – | – | inhibition at 10 µM (PDE2; [1]): 75.9%
17 | COc1cc2c(cc1OC)N(C)C(=O)CN=C2c1cccc(C(=O)NCc2ccccc2)c1 [Compound 36b, N-benzyl-3-(7,8-dimethoxy-1-methyl-2-oxo-2,3-dihydro-1H-1,4-benzodiazepin-5-yl) benzamide] | 3.1 | – | –
18 | COc1cc2c(cc1OC)N(C)C(=O)CN=C2c1cccc(C(=O)NCCCCCC(N)=O)c1 [Compound 36c, N-(6-amino-6-oxohexyl)-3-(7,8-dimethoxy-1-methyl-2-oxo-2,3-dihydro-1H-1,4-benzodiazepin-5-yl)benzamide] | – | 46 | –
19 | COc1cc2c(cc1OC)N(C)C(=O)CN=C2c1cccc(C(=O)N(C)C)c1 [Compound 36d, 3-(7,8-dimethoxy-1-methyl-2-oxo-2,3-dihydro-1H-1,4-benzodiazepin-5-yl)-N,N-dimethylbenzamide] | – | – | inhibition at 10 µM (PDE2; [1]): 17%
20 | COc1cc2c(cc1OC)N(C)C(=O)CN=C2c1cccc(C(=O)N2CCN(Cc3ccccc3)CC2)c1 [Compound 36e, 5-{3-[(4-benzylpyperazin-1-yl)carbonyl]phenyl}7,8-dimethoxy-1-methyl-2-oxo-2,3-dihydro-1H-1,4-benzodiazepin-2-one] | – | – | PDE2 percentage inhibition at 10 μM (PDE2; [1]): 27%
21 | COc1cc2c(cc1OC)N(C)C(=O)CN=C2c1cccc(C(=O)NCCCc2ccccc2)c1 [Compound 36f, 3-(7,8-dimethoxy-1-methyl-2-oxo-2,3-dihydro-1H-1,4-benzodiazepin-5-yl)-N-(3-phenylpropyl)benzamide] | 2.8 | – | –
22 | Methyl (2E)-3-[5-(cyanophenyl)-7,8-dimethoxy-1-methyl-2-oxo-2,3-dihydro-1H-1,4-benzodiazepin-9-yl)phenyl]acrylate [Compound 25d] | – | – | PDE2 percentage inhibition at 10 μM (PDE2; [1]): 2.4%
23 | Tert-butyl-3-[5-(cyanophenyl)-(7,8-dimethoxy-1-methyl-2-oxo-2,3-dihydro-1H-1,4-benzodiazepin-9-yl)phenyl]prop-2-ynylcarbamate [Compound 25c] | – | – | IC50 (PDE2; [2]): 3.4 µM
24 | [6-(3-aminoethynyl)-7,8-dimethoxy-1-methyl-2-oxo-2,3-dihydro-1H-1,4-benzodiazepin-5-yl]benzonitrile [Compound 25g] | – | – | PDE2 percentage inhibition at 10 μM (PDE2; [1]): 14.5%
25 | [9-(3-aminoethynyl)-7,8-dimethoxy-1-methyl-2-oxo-2,3-dihydro-1H-1,4-benzodiazepin-5-yl]benzonitrile [Compound 25f] | – | – | PDE2 percentage inhibition at 10 μM (PDE2; [1]): 0%
26 | tert-butyl-3-[5-(cyanophenyl)-(7,8-dimethoxy-1-methyl-2-oxo-2,3-dihydro-1H-1,4-benzodiazepin-6-yl)phenyl]prop-2-ynylcarbamate [Compound 25e] | – | – | IC50 (PDE2; [2]): 5 µM
